pIC50: −log10 of the molar value. Structures can show the parent of a compound that is named as a salt. Where two headings read alike, the source gives them in different places.
What was measured:
[1] = system: Phosphorylated Ribosomal Protein S6 (RPS6); assay: THP-1 RPS6 ELISA Assay; type: cell-based, Human; details: THP-1 cells, read-out: PI3Kγ_THP1_RPS6_ELISA IC50
In short: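 Serum-starved THP-1 cells were preincubated with a concentration range of compound for 2 h at 37 °C, then stimulated with 10 nM MCP-1 for 15 min. Phospho-RPS6 in lysates was quantified by ELISA at 450 nm. IC50 came from percent inhibition versus log inhibitor concentration.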

[2] = target: PI3Kγ (p110γ) Recombinant Human Protein (Homo sapiens (Human), UniProt P48736); assay: PI3K-γ Scintillation Proximity Assay; type: biochemical; details: read-out: PI3Kγ IC50
In short: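 Recombinant human p110γ assayed at room temperature in 20 mM MOPS pH 6.7, 10 mM MgCl2, 5 mM DTT, 0.03% CHAPS, 2% DMSO, with 20 μM PIP2 and 2 μM ATP plus [γ-33P]ATP. Product captured on WGA SPA beads overnight and counted; IC50 fitted from % of solvent-control activity versus log inhibitor concentration.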

[3] = target: PI3Kδ (p110δ/p85α) Recombinant Human Protein (Homo sapiens (Human), UniProt O00329); assay: PI3Kδ Scintillation Proximity Assay; type: biochemical
In short: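 Kinase reaction run at room temperature in 20 mM MOPS pH 6.7, 10 mM MgCl2, 5 mM DTT, 0.03% CHAPS with 20 μM PIP2, 2 μM ATP plus [γ-33P]ATP, 3.4 nM enzyme, 2% DMSO; 120 min. Quenched with WGA SPA beads/EDTA, counted by scintillation; IC50 from % solvent-control activity vs log concentration.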

Sequence of PI3Kδ (p110δ/p85α) Recombinant Human Protein (O00329 whole entry): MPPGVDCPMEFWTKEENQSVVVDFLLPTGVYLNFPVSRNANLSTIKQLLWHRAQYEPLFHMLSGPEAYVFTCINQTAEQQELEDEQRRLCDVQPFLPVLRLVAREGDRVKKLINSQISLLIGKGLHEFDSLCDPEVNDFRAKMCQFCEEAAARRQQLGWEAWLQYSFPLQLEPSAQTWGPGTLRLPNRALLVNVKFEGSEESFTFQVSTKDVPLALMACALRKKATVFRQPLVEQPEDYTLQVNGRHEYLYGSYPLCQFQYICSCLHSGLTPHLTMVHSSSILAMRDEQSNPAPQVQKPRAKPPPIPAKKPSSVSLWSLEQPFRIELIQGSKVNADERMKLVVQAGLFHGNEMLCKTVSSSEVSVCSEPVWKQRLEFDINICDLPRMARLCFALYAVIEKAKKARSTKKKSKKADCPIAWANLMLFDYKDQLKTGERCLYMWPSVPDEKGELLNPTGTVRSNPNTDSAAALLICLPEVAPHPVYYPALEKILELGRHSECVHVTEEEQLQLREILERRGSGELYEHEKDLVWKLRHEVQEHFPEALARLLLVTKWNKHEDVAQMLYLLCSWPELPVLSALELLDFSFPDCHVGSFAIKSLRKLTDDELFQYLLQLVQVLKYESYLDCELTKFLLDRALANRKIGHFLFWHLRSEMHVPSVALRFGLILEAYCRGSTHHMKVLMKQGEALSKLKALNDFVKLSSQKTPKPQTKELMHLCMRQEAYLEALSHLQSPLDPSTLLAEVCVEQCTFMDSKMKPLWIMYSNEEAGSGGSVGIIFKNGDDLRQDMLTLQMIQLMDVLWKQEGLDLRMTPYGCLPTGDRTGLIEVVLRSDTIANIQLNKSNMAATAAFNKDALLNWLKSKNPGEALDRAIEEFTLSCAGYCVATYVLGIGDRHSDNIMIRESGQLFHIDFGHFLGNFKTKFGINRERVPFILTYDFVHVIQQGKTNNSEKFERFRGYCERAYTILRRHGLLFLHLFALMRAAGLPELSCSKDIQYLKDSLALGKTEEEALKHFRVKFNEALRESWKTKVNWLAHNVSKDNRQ
Sequence of PI3Kδ (p110δ/p85α) Recombinant Human Protein (P27986 whole entry partner): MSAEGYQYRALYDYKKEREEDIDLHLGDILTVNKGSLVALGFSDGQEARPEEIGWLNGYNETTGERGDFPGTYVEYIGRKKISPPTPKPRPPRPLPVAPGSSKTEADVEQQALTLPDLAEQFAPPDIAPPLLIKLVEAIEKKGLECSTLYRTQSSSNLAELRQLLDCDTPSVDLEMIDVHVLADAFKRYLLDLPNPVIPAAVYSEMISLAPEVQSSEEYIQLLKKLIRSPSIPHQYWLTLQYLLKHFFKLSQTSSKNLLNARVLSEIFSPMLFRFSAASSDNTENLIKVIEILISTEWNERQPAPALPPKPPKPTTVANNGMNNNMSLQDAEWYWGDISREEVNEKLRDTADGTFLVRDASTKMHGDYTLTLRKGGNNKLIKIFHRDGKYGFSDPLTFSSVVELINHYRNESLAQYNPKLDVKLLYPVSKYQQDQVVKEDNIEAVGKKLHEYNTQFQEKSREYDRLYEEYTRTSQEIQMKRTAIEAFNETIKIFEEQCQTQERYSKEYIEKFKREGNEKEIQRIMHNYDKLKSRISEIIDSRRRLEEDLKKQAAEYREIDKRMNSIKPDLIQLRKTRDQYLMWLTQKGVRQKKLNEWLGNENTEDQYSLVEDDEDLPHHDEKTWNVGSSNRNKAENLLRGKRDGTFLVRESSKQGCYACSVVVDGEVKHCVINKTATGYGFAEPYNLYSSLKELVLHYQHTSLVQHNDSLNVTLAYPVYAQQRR
Sequence of PI3Kγ (p110γ) Recombinant Human Protein (P48736 whole entry): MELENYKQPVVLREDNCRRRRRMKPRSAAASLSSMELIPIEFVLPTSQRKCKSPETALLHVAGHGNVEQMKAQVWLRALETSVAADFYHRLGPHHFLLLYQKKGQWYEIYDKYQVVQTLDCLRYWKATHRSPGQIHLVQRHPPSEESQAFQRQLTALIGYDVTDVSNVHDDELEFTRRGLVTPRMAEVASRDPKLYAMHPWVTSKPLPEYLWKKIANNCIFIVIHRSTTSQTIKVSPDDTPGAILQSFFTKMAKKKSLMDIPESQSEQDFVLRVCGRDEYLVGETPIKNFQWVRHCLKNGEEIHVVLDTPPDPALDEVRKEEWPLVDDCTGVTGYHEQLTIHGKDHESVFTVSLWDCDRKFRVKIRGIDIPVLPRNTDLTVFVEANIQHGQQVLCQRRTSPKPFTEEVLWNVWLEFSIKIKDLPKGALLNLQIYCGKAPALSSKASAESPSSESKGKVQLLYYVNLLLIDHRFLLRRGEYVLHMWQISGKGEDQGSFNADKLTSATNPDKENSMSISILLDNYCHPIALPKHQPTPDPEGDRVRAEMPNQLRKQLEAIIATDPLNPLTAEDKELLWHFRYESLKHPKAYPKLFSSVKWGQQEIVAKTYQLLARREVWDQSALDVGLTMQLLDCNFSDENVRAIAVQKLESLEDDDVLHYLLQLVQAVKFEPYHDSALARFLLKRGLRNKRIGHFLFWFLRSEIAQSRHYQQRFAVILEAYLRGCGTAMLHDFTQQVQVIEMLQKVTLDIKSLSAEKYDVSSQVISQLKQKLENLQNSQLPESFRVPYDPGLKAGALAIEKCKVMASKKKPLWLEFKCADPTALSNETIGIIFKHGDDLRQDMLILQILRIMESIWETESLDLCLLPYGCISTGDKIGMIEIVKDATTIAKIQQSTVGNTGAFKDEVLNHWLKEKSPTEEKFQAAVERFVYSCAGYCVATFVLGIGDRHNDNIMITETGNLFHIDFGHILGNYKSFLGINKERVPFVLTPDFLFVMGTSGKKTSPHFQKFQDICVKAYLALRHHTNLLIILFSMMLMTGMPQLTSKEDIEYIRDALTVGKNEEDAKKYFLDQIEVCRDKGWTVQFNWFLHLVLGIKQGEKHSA

Compound | pIC50 ([1]; Homo sapiens) | pIC50 [2] | pIC50 [3] | pIC50 [1]
O=C(O)C(F)(F)F.[2H]C([2H])([2H])c1ccc(S(=O)(=O)NC23CCC(C#N)(C2)C3)cc1-c1cnc2c(N)nc(C)nn12 [Example 386, 3-(4-Amino-2-methylimidazo[2,1-f][1,2,4]triazin-7-yl)-N-(4-cyanobicyclo[2.1.1]hexan-1-yl)-4-(methyl-d3)benzenesulfonamide trifluoroacetate salt] | > 7.00 | > 7.00 | 6.30 to 7.00 | –
Cc1ccc(S(N)(=O)=O)cc1-c1cnc2c(N)nc(C(F)(F)F)nn12 [Example 336, 3-(4-Amino-2-(trifluoromethyl)imidazo[1,2-f][1,2,4]triazin-7-yl)-4-methylbenzenesulfonamide trifluoroacetate salt] | – | > 7.00 | 6.30 to 7.00 | 6.30 to 7.00
Cc1cc(C)c(S(=O)(=O)NC23CCC(CO)(C2)C3)cc1-c1cnc2c(N)ncnn12 [Example 363, 5-(4-Aminoimidazo[1,2-f][1,2,4]triazin-7-yl)-N-(4-(hydroxymethyl)bicyclo[2.1.1]hexan-1-yl)-2,4-dimethylbenzenesulfonamide] | – | > 7.00 | 5.70 to 6.30 | 6.30 to 7.00
CCS(=O)(=O)Nc1cc(-c2cnc3c(N)cccn23)cnc1F [Example 2, N-[5-(8-Aminoimidazo[1,2-a]pyridin-3-yl)-2-fluoropyridin-3-yl]ethanesulfonamide bis(trifluoroacetate)] | < 6.00 | 6.30 to 7.00 | 5.70 to 6.30 | –
Cc1ccc(S(=O)(=O)NC23CCC(F)(CC2)CC3)cc1-c1cnc2c(N)ncnn12 [Example 188, 3-(4-aminoimidazo[2,1-f][1,2,4]triazin-7-yl)-N-(4-fluorobicyclo[2.2.2]octan-1-yl)-4-methylbenzenesulfonamide] | 6.30 to 7.00 | > 7.00 | > 7.00 | –
3-{8-Amino-6-[3-(methylsulfonyl)phenyl]imidazo[1,2-a]pyrazin-3-yl}-N-(trans-4-hydroxycyclohexyl)-4-methylbenzenesulfonamide [Example 33] | – | > 7.00 | 6.30 to 7.00 | 6.00 to 6.30
Cc1ccc(S(=O)(=O)N(C)CCC#N)cc1-c1cnc2c(N)nc(C(F)(F)F)nn12 [Example 344, 3-(4-amino-2-(trifluoromethyl)imidazo[2,1-f][1,2,4]triazin-7-yl)-N-(2-cyanoethyl)-N,4-dimethylbenzenesulfonamide] | 6.30 to 7.00 | > 7.00 | > 7.00 | –
Cc1ccc(S(=O)(=O)NC23CC(c4cnco4)(C2)C3)cc1-c1cnc2c(N)ncnn12 [Example 111, 3-(4-Aminoimidazo[1,2-f][1,2,4]triazin-7-yl)-4-methyl-N-(3-(oxazol-5-yl)bicyclo[1.1.1]pentan-1-yl)benzenesulfonamide trifluoroacetate salt] | – | > 7.00 | 6.30 to 7.00 | 6.30 to 7.00
Cc1ccc(S(=O)(=O)NC23CC(C(F)(F)F)(C2)C3)cc1-c1cnc2c(N)ncnn12 [Example 97, 3-(4-Aminoimidazo[1,2-f][1,2,4]triazin-7-yl)-4-methyl-N-(3-(trifluoromethyl)bicyclo[1.1.1]pentan-1-yl)benzenesulfonamide trifluoroacetate salt] | – | > 7.00 | 6.30 to 7.00 | 6.30 to 7.00
Cc1ccc(S(=O)(=O)N(C)C23CC(N)(C2)C3)cc1-c1cnc2c(N)ncnn12 [Example 118, N-(3-aminobicyclo[1.1.1]pentan-1-yl)-3-(4-aminoimidazo[1,2-f][1,2,4]triazin-7-yl)-N,4-dimethylbenzenesulfonamide trifluoroacetate salt] | – | > 7.00 | 6.30 to 7.00 | < 6.00
Cc1ccc(S(=O)(=O)NCC2(CO)CCOCC2)cc1-c1cnc2c(N)ncnn12 [Example 121, 3-(4-aminoimidazo[2,1-f][1,2,4]triazin-7-yl)-N-{[4-(hydroxymethyl)tetrahydro-2H-pyran-4-yl]methyl}-4-methylbenzenesulfonamide] | < 6.00 | 6.30 to 7.00 | < 5.70 | –
Cc1cc(Cl)c(S(=O)(=O)N[C@H]2CC[C@](C)(O)CC2)cc1-c1cnc2c(N)nc(C(F)(F)F)nn12 [Example 410, 5-(4-Amino-2-(trifluoromethyl)imidazo[1,2-f][1,2,4]triazin-7-yl)-2-chloro-N-((1r,4r)-4-hydroxy-4-methylcyclohexyl)-4-methylbenzenesulfonamide trifluoroacetate salt] | – | > 7.00 | > 7.00 | > 7.00

Other lines, results leading:

pIC50 ([1]; Homo sapiens) | pIC50 [2] | pIC50 [3] | pIC50 [1] | Compound
– | > 7.00 | 5.70 to 6.30 | < 6.00 | Cc1ccc(S(=O)(=O)NCC2CCN(C(=O)C3CC3)CC2)cc1-c1cnc2c(N)nccn12 [Example 86, 3-(8-aminoimidazo[1,2-a]pyrazin-3-yl)-N-((1-(cyclopropanecarbonyl)piperidin-4-yl)methyl)-4-methylbenzenesulfonamide]
6.30 to 7.00 | > 7.00 | 6.30 to 7.00 | – | Cc1ccc(S(C)(=O)=O)cc1-c1cnc2c(N)nc(-c3ccncc3Cl)cn12 [Example 484, 6-(3-Chloropyridin-4-yl)-3-(2-methyl-5-(methylsulfonyl)phenyl)imidazo[1,2-a]pyrazin-8-amine trifluoroacetate]
> 7.00 | > 7.00 | > 7.00 | – | Cc1ccc(S(=O)(=O)N[C@H]2CC[C@H](O)CC2)cc1-c1cnc2c(N)nc(-c3cccc(F)c3)cn12 [Example 21, 3-[8-Amino-6-(3-fluorophenyl)imidazo[1,2-a]pyrazin-3-yl]-N-(trans-4-hydroxycyclohexyl)-4-methylbenzenesulfonamide]
6.30 to 7.00 | > 7.00 | 6.30 to 7.00 | – | [2H]C([2H])([2H])c1ccc(S(=O)(=O)NC23CCC(O)(C2)C3)cc1-c1cnc2c(N)nc(C(F)(F)F)cn12 [Example 252, 3-(8-Amino-6-(trifluoromethyl)imidazo[1,2-a]pyrazin-3-yl)-N-(4-hydroxybicyclo[2.1.1]hexan-1-yl)-4-(methyl-d3)benzenesulfonamide]
– | > 7.00 | 6.30 to 7.00 | 6.30 to 7.00 | Cc1ccc(S(=O)(=O)N[C@H]2C[C@H](CO)C2)cc1-c1cnc2c(N)ncnn12 [Example 60, 3-(4-Aminoimidazo[1,2-f][1,2,4]triazin-7-yl)-N-[trans-3-(hydroxymethyl)cyclobutyl]-4-methylbenzenesulfonamide]
> 7.00 | > 7.00 | 6.30 to 7.00 | – | Cc1ccc(S(=O)(=O)N[C@H]2CC[C@H](CF)OC2)cc1-c1cnc2c(N)ncnn12 [Example 467, 3-(4-Aminoimidazo[2,1-f][1,2,4]triazin-7-yl)-N-((3S,6R)-6-(fluoromethyl)tetrahydro-2H-pyran-3-yl)-4-methylbenzenesulfonamide]
6.00 to 6.30 | > 7.00 | 6.30 to 7.00 | – | Cc1ccc(S(C)(=O)=O)cc1-c1cnc2c(N)nc(-c3ccc(C(F)F)cc3)cn12 [Example 475, 6-(4-(Difluoromethyl)phenyl)-3-(2-methyl-5-(methylsulfonyl)phenyl)imidazo[1,2-a]pyrazin-8-amine trifluoroacetate]
> 7.00 | > 7.00 | 6.30 to 7.00 | – | O=C(O)C(F)(F)F.[2H]C([2H])([2H])c1ccc(S(=O)(=O)NC23CCC(C#N)(C2)C3)cc1-c1cnc2c(N)nc(C)cn12 [Example 379, 3-(8-Amino-6-methylimidazo[1,2-a]pyrazin-3-yl)-N-(4-cyanobicyclo[2.1.1]hexan-1-yl)-4-(methyl-d3)benzenesulfonamide trifluoroacetate salt]
< 6.00 | > 7.00 | 6.30 to 7.00 | – | CNC(=O)c1cn2c(-c3cc(S(=O)(=O)N[C@H]4CC[C@H](CC#N)OC4)ccc3C)cnc2c(N)n1 [Example 449, 8-Amino-3-(5-(N-((3S,6R)-6-(cyanomethyl)tetrahydro-2H-pyran-3-yl)sulfamoyl)-2-methylphenyl)-N-methylimidazo[1,2-a]pyrazine-6-carboxamide trifluoroacetate salt]
6.00 to 6.30 | > 7.00 | 6.30 to 7.00 | – | Cc1ccc(S(=O)(=O)N[C@H]2CC[C@H](CC#N)OC2)cc1-c1cnc2c(N)nc(C(=O)NC3CC(F)(F)C3)cn12 [Example 451, 8-amino-3-(5-(N-((3S,6R)-6-(cyanomethyl)tetrahydro-2H-pyran-3-yl)sulfamoyl)-2-methylphenyl)-N-(3,3-difluorocyclobutyl)imidazo[1,2-a]pyrazine-6-carboxamide trifluoroacetate salt]
6.00 to 6.30 | > 7.00 | 5.70 to 6.30 | – | Cc1ccc(S(=O)(=O)N2CC[C@H](O)C2)cc1-c1cnc2c(N)ncnn12 [Example 197, (S)-1-((3-(4-Aminoimidazo[2,1-f][1,2,4]triazin-7-yl)-4-methylphenyl)sulfonyl)pyrrolidin-3-ol]
6.30 to 7.00 | > 7.00 | > 7.00 | – | Cc1ccc(S(=O)(=O)N[C@H]2CC[C@H](O)CC2)cc1-c1cnc2c(N)nc(-c3ccc(C(=O)N(C)C)cc3F)cn12 [Example 79, 4-[8-Amino-3-(5-{[(trans-4-hydroxycyclohexyl)amino]sulfonyl}-2-methylphenyl)imidazo[1,2-a]pyrazin-6-yl]-3-fluoro-N,N-dimethylbenzamide trifluoroacetate]
